Here are results for six compounds from US20140031278A1, “Novel Glucagon Analogues” (NOVO NORDISK A/S, priority 2011, published 2014).

*1 amine or outer side, *2 acyl side, *3 side chain or, on linkers, in order; H or OH if unused. Where a SMILES comes first, the peptide text is derived from it. Side-chain parts run from the residue outwards. γGlu = O=C(O)[C@H](CCC(=O)[*:2])N[*:1]

One may read the EC50 as the concentration needed to bring the measured effect to its halfway point.

The target in the assay is T1, glucagon receptor (Homo sapiens, UniProt P47871).
T1 construct: expressed in transfected cells
T1 sequence (P47871 26-477): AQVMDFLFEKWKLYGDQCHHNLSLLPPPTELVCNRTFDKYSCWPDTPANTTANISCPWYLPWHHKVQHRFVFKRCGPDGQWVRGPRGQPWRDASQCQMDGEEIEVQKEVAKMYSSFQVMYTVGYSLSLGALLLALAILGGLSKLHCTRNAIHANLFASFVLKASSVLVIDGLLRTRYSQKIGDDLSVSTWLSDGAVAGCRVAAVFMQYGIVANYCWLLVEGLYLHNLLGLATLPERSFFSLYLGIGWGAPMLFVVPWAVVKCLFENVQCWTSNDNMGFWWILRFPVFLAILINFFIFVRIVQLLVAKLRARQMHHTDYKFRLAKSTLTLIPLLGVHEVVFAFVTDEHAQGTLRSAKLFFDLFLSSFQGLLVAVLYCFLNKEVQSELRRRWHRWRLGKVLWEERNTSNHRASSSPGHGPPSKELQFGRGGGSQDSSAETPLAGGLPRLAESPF
Description: Assay (I) Glucagon activity (cAMP biosensor, FLIPR). It is filed as cell-based. The conditions noted are these: HEK-293 cells with cloned glucagon receptor and cAMP biosensor; end point after 6 minutes. Put shortly: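 HEK-293 cells expressing glucagon receptor with membrane cAMP biosensor (ACTOne), calcium-dye loaded with probenecid and a PDE inhibitor.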
Compound `CC(=O)N[C@@H](CCC(=O)N[C@@H](CCC(=O)N[C@@H](CCC(=O)N[C@@H](CCC(=O)NCCCC[C@H](NC(=O)[C@@H](NC(=O)[C@H](Cc1ccccc1)NC(=O)[C@H](CCC(=O)O)NC(=O)[C@H](C)NC(=O)[C@H](C)NC(=O)[C@H](CCCNC(=N)N)NC(=O)[C@H](CCCNC(=N)N)NC(=O)[C@@H](NC(=O)[C@H](CC(=O)O)NC(=O)[C@H](CC(C)C)NC(=O)[C@H](Cc1ccc(O)cc1)NC(=O)[C@H](CCCCN)NC(=O)[C@H](CO)NC(=O)[C@@H](NC(=O)[C@H](CC(=O)O)NC(=O)[C@H](CO)NC(=O)[C@@H](NC(=O)[C@H](Cc1ccccc1)NC(=O)[C@@H](NC(=O)CNC(=O)[C@H](Cc1c[nH]cn1)NC(=O)CNC(=O)[C@@H](N)Cc1c[nH]cn1)[C@@H](C)O)[C@@H](C)O)C(C)C)C(C)C)C(C)C)C(=O)N[C@@H](Cc1c[nH]c2ccccc12)C(=O)N[C@@H](CC(C)C)C(=O)N[C@@H](CC(C)C)C(=O)N[C@@H](CO)C(=O)N[C@H](C(=O)O)[C@@H](C)O)C(=O)O)C(=O)O)C(=O)O)C(=O)O` [Example 50, N^ε24-[(4S)-4-[[(4S)-4-[[(4S)-4-[[(4S)-4-acetamido-4-carboxybutanoyl]amino]-4-carboxybutanoyl]amino]-4-carboxybutanoyl]amino]-4-carboxybutanoyl]-[Gly^2,His^3,Val^10,Val^16,Ala^20,Glu^21,Lys^24,Leu^27,Ser^28]-Glucagon] (H-HGHGTFTSDVSKYLDVRRAAEFVK([γGlu-γGlu-γGlu-γGlu-Ac])WLLST-OH) registered an EC50 of 0.153 nM.

In the case of `CC(=O)N[C@@H](CCC(=O)N[C@@H](CCC(=O)N[C@@H](CCC(=O)N[C@@H](CCC(=O)NCCCC[C@H](NC(=O)[C@@H](NC(=O)[C@H](Cc1ccccc1)NC(=O)[C@H](CC(=O)O)NC(=O)[C@H](C)NC(=O)[C@H](C)NC(=O)[C@H](CCCNC(=N)N)NC(=O)[C@H](CCCNC(=N)N)NC(=O)[C@H](CO)NC(=O)[C@H](CC(=O)O)NC(=O)[C@H](CC(C)C)NC(=O)[C@H](Cc1ccc(O)cc1)NC(=O)[C@H](CCCCN)NC(=O)[C@H](CO)NC(=O)[C@H](Cc1ccc(O)cc1)NC(=O)[C@H](CC(=O)O)NC(=O)[C@H](CO)NC(=O)[C@@H](NC(=O)[C@H](Cc1ccccc1)NC(=O)[C@@H](NC(=O)CNC(=O)[C@H](Cc1c[nH]cn1)NC(=O)[C@H](CO)NC(=O)[C@@H](N)Cc1c[nH]cn1)[C@@H](C)O)[C@@H](C)O)C(C)C)C(=O)N[C@@H](Cc1c[nH]c2ccccc12)C(=O)N[C@@H](CC(C)C)C(=O)N[C@@H](CC(C)C)C(=O)N[C@@H](CO)C(=O)N[C@H](C(=O)O)[C@@H](C)O)C(=O)O)C(=O)O)C(=O)O)C(=O)O` [Example 4, N^ε24-[(4S)-4-[[(4S)-4-[[(4S)-4-[[(4S)-4-acetamido-4-carboxybutanoyl]amino]-4-carboxybutanoyl]amino]-4-carboxybutanoyl]amino]-4-carboxybutanoyl]-[His3,Ala20,Lys24,Leu27,Ser28]-Glucagon] (H-HSHGTFTSDYSKYLDSRRAADFVK([γGlu-γGlu-γGlu-γGlu-Ac])WLLST-OH), the EC50 was found to be 0.0145 nM.

In turn, `CC(C)C[C@H](NC(=O)[C@H](Cc1ccc(O)cc1)NC(=O)[C@H](CCCCN)NC(=O)[C@H](CO)NC(=O)[C@H](Cc1ccc(O)cc1)NC(=O)[C@H](CC(=O)O)NC(=O)[C@H](CO)NC(=O)[C@@H](NC(=O)[C@H](Cc1ccccc1)NC(=O)[C@@H](NC(=O)CNC(=O)[C@H](Cc1c[nH]cn1)NC(=O)[C@H](CO)NC(=O)[C@@H](N)Cc1c[nH]cn1)[C@@H](C)O)[C@@H](C)O)C(=O)N[C@@H](CCC(=O)O)C(=O)N[C@@H](CO)C(=O)N[C@@H](CCCNC(=N)N)C(=O)N[C@@H](CCCNC(=N)N)C(=O)N[C@@H](C)C(=O)N[C@@H](C)C(=O)N[C@@H](CC(=O)O)C(=O)N[C@@H](Cc1ccccc1)C(=O)N[C@H](C(=O)N[C@@H](CCCCNC(=O)CC[C@H](NC(=O)CC[C@H](NC(=O)CC[C@H](NC(=O)CC[C@H](N)C(=O)O)C(=O)O)C(=O)O)C(=O)O)C(=O)N[C@@H](Cc1c[nH]c2ccccc12)C(=O)N[C@@H](CC(C)C)C(=O)N[C@@H](CC(C)C)C(=O)N[C@@H](CO)C(=O)N[C@H](C(=O)O)[C@@H](C)O)C(C)C` [Example 5, N^ε24-[(4S)-4-[[(4S)-4-[[(4S)-4-[[(4S)-4-amino-4-carboxybutanoyl]amino]-4-carboxybutanoyl]amino]-4-carboxybutanoyl]amino]-4-carboxybutanoyl]-[His3,Glu15,Ala20,Lys24,Leu27,Ser28]-Glucagon] (H-HSHGTFTSDYSKYLESRRAADFVK([γGlu-γGlu-γGlu-γGlu])WLLST-OH) had an EC50 of 0.0563 nM.

`CC(=O)N[C@@H](CCC(=O)N[C@@H](CCC(=O)N[C@@H](CCC(=O)N[C@@H](CCC(=O)NCCCC[C@H](NC(=O)[C@@H](NC(=O)[C@H](Cc1ccccc1)NC(=O)[C@H](CC(=O)O)NC(=O)[C@H](CCC(N)=O)NC(=O)[C@H](C)NC(=O)[C@H](CCCNC(=N)N)NC(=O)[C@H](CCCNC(=N)N)NC(=O)[C@H](CO)NC(=O)[C@H](CCC(=O)O)NC(=O)[C@H](CC(C)C)NC(=O)[C@H](Cc1ccc(O)cc1)NC(=O)[C@H](CCCCN)NC(=O)[C@H](CO)NC(=O)[C@@H](NC(=O)[C@H](CC(=O)O)NC(=O)[C@H](CO)NC(=O)[C@@H](NC(=O)[C@H](Cc1ccccc1)NC(=O)[C@@H](NC(=O)CNC(=O)[C@H](CCC(N)=O)NC(=O)[C@H](CO)NC(=O)[C@@H](N)Cc1c[nH]cn1)[C@@H](C)O)[C@@H](C)O)C(C)C)C(C)C)C(=O)N[C@@H](Cc1c[nH]c2ccccc12)C(=O)N[C@@H](CC(C)C)C(=O)N[C@@H](CC(C)C)C(=O)N[C@@H](CO)C(=O)N[C@H](C(=O)O)[C@@H](C)O)C(=O)O)C(=O)O)C(=O)O)C(=O)O` [Example 44, N^ε24-[(4S)-4-[[(4S)-4-[[(4S)-4-[[(4S)-4-acetamido-4-carboxybutanoyl]amino]-4-carboxybutanoyl]amino]-4-carboxybutanoyl]amino]-4-carboxybutanoyl]-[Val^10,Glu^15,Lys^24,Leu^27,Ser^28]-Glucagon] (H-HSQGTFTSDVSKYLESRRAQDFVK([γGlu-γGlu-γGlu-γGlu-Ac])WLLST-OH) returned an EC50 of 0.075 nM.

Compound `CC(=O)N[C@@H](CCC(=O)N[C@@H](CCC(=O)N[C@@H](CCC(=O)N[C@@H](CCC(=O)NCCCC[C@H](NC(=O)[C@H](C)NC(=O)[C@H](CCCNC(=N)N)NC(=O)[C@H](CCCNC(=N)N)NC(=O)[C@H](CO)NC(=O)[C@H](CC(=O)O)NC(=O)[C@H](CC(C)C)NC(=O)[C@H](Cc1ccc(O)cc1)NC(=O)[C@H](CCCCN)NC(=O)[C@H](CO)NC(=O)[C@H](Cc1ccc(O)cc1)NC(=O)[C@H](CC(=O)O)NC(=O)[C@H](CO)NC(=O)[C@@H](NC(=O)[C@H](Cc1ccccc1)NC(=O)[C@@H](NC(=O)CNC(=O)[C@H](CCC(N)=O)NC(=O)[C@H](CO)NC(=O)[C@@H](N)Cc1c[nH]cn1)[C@@H](C)O)[C@@H](C)O)C(=O)N[C@@H](CC(=O)O)C(=O)N[C@@H](Cc1ccccc1)C(=O)N[C@H](C(=O)N[C@@H](CCC(N)=O)C(=O)N[C@@H](Cc1c[nH]c2ccccc12)C(=O)N[C@@H](CC(C)C)C(=O)N[C@@H](CC(C)C)C(=O)N[C@@H](CO)C(=O)N[C@H](C(=O)O)[C@@H](C)O)C(C)C)C(=O)O)C(=O)O)C(=O)O)C(=O)O` [Example 54, N^ε20-[(4S)-4-[[(4S)-4-[[(4S)-4-[[(4S)-4-acetamido-4-carboxybutanoyl]amino]-4-carboxybutanoyl]amino]-4-carboxybutanoyl]amino]-4-carboxybutanoyl]-[Lys^20,Leu^27,Ser^28]-Glucagon] gave an EC50 of 0.018 nM.

For `CC(=O)N[C@@H](CCC(=O)N[C@@H](CCC(=O)N[C@@H](CCC(=O)N[C@@H](CCC(=O)NCCCC[C@H](NC(=O)[C@@H](NC(=O)[C@H](Cc1ccccc1)NC(=O)[C@H](CC(=O)O)NC(=O)[C@H](CCC(=O)O)NC(=O)[C@H](C)NC(=O)[C@H](CCCNC(=N)N)NC(=O)[C@H](CCCNC(=N)N)NC(=O)[C@H](CC(C)C)NC(=O)[C@H](CC(=O)O)NC(=O)[C@H](CC(C)C)NC(=O)[C@H](Cc1ccc(O)cc1)NC(=O)[C@H](CCCNC(=N)N)NC(=O)[C@H](CO)NC(=O)[C@H](Cc1ccc(O)cc1)NC(=O)[C@H](CC(=O)O)NC(=O)[C@H](CO)NC(=O)[C@@H](NC(=O)[C@H](Cc1ccccc1)NC(=O)[C@@H](NC(=O)CNC(=O)[C@H](CCC(N)=O)NC(=O)[C@H](CO)NC(=O)[C@@H](N)Cc1c[nH]cn1)[C@@H](C)O)[C@@H](C)O)C(C)C)C(=O)N[C@@H](Cc1c[nH]c2ccccc12)C(=O)N[C@@H](CC(C)C)C(=O)N[C@@H](CC(C)C)C(=O)N[C@@H](CO)C(=O)N[C@H](C(=O)O)[C@@H](C)O)C(=O)O)C(=O)O)C(=O)O)C(=O)O` [Example 57, N^ε24-[(4S)-4-[[(4S)-4-[[(4S)-4-[[(4S)-4-acetamido-4-carboxybutanoyl]amino]-4-carboxybutanoyl]amino]-4-carboxybutanoyl]amino]-4-carboxybutanoyl]-[Arg^12,Leu^16,Glu^20,Lys^24,Leu^27,Ser^28]-Glucagon] (H-HSQGTFTSDYSRYLDLRRAEDFVK([γGlu-γGlu-γGlu-γGlu-Ac])WLLST-OH), the EC50 amounted to 0.017 nM.
